Key:
IRAK4 = biological target: T1, IRAK4 (Homo sapiens, UniProt Q9NWZ3); experiment: IRAK4 MSD degradation in OCI-LY10; format: cell-based; settings: OCI-LY10 cells, 24 hrs, Meso Scale Discovery
T1 construct: endogenous in cells; host or cells: OCI-LY10
T1 sequence (Q9NWZ3 1-460): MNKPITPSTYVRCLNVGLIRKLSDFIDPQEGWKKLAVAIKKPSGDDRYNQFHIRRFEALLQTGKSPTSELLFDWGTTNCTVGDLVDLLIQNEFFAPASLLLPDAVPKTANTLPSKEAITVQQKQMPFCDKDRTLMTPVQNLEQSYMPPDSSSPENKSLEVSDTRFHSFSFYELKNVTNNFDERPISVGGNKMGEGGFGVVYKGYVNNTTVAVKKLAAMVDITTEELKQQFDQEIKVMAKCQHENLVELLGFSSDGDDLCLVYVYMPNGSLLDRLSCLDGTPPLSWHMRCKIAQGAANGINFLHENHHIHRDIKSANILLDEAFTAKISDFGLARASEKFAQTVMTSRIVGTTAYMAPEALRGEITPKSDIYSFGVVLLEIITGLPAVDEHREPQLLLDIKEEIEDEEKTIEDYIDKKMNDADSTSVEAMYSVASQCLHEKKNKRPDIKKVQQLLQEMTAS
Method in brief: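 OCI-LY10 cells treated 4 to 24 hours at 37° C. with 8-dose 1:3 series, top 1 to 10 μM. IRAK4 in lysates quantified by MSD sandwich immunoassay (mouse capture, rabbit detection, SULFO-TAG anti-rabbit). DC50 from three-parameter logistic fit.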

[1] = Rodent pharmacokinetics (rat PK); format: in vivo; settings: po, dosed intravenously or orally by gavage, plasma, read-out: F % (bioavailability)
Method in brief: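 Rats were dosed IV or by oral gavage, with jugular blood taken predose and at 5 min (IV only), 15, 30 min and 1, 2, 4, 8, 24 h. Plasma was separated by centrifugation at 4 °C. Oral bioavailability (F %) is coded A (≥5%) or B (≤5%).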

Cn1c(=O)n(C2CCC(=O)NC2=O)c2cccc([C@H]3CCN(C[C@H]4CC[C@H](n5cc6cc(NC(=O)c7cncc(C#N)c7)c(C(C)(C)O)cc6n5)CC4)CC3(F)F)c21 (single isomer, unassigned) [I-390]
DC50 (IRAK4): < 0.01 µM | bioavailability [1]: ≤ 5%

COc1ccc2c(c1[C@@H]1CCN(C[C@H]3CC[C@H](n4cc5cc(NC(=O)c6cncc(C(F)(F)F)n6)ccc5n4)CC3)CC1(F)F)n(C)c(=O)n2C1CCC(=O)NC1=O (single isomer, unassigned) [I-391]
DC50 (IRAK4): < 0.01 µM | bioavailability [1]: ≥ 5%

COc1ccc2c(c1[C@H]1CCN(C[C@H]3CC[C@H](n4cc5cc(NC(=O)c6cncc(C(F)(F)F)n6)ccc5n4)CC3)CC1(F)F)n(C)c(=O)n2C1CCC(=O)NC1=O (single isomer, unassigned) [I-392]
DC50 (IRAK4): < 0.01 µM | bioavailability [1]: ≥ 5%

Cn1c(=O)n(C2CCC(=O)NC2=O)c2cccc([C@@H]3CCN(C[C@H]4CC[C@H](n5cc6cc(NC(=O)c7cccc(C(F)(F)F)n7)c(N7CCN(C8CC8)CC7)cc6n5)CC4)C[C@H]3F)c21 (stereo partly drawn) [I-107]
DC50 (IRAK4): 0.01 to 0.1 µM | bioavailability [1]: ≤ 5%

Cn1c(=O)n(C2CCC(=O)NC2=O)c2cccc(C#CCOC[C@H]3CC[C@H](n4cc(NC(=O)c5cnn6ccc(N7C[C@H]8C[C@@H]7CO8)nc56)c(C(F)F)n4)CC3)c21 (stereo partly drawn) [I-108]
DC50 (IRAK4): 0.01 to 0.1 µM | bioavailability [1]: ≥ 5%

Cn1c(=O)n(C2CCC(=O)NC2=O)c2cccc(CCCOC[C@H]3CC[C@H](n4cc(NC(=O)c5cnn6ccc(N7C[C@H]8C[C@@H]7CO8)nc56)c(C(F)F)n4)CC3)c21 (stereo partly drawn) [I-109]
DC50 (IRAK4): > 0.2 µM | bioavailability [1]: ≤ 5%

COc1cc2nc([C@H]3CC[C@H](CN4CCC5(CN(c6cccc7c6n(C)c(=O)n7C6CCC(=O)NC6=O)C5)C(F)(F)C4)CC3)sc2cc1NC(=O)c1cncc(C#N)c1 (stereo partly drawn) [I-110]
DC50 (IRAK4): 0.01 to 0.1 µM | bioavailability [1]: ≤ 5%

Cn1c(=O)n(C2CCC(=O)NC2=O)c2cccc(N3CC(COC[C@H]4CC[C@H](n5cc(NC(=O)c6cnn7ccc(N8C[C@H]9C[C@@H]8CO9)nc67)c(C(F)F)n5)CC4)C3)c21 (stereo partly drawn) [I-111]
DC50 (IRAK4): > 0.2 µM | bioavailability [1]: ≤ 5%

Cn1c(=O)n(C2CCC(=O)NC2=O)c2ccc(F)c(N3CC(N4CCN([C@H]5CC[C@H](n6cc(NC(=O)c7cnn8ccc(N9C[C@H]%10C[C@@H]9CO%10)nc78)c(C(F)F)n6)CC5)CC4)C3)c21 (stereo partly drawn) [I-117]
DC50 (IRAK4): < 0.01 µM | bioavailability [1]: ≥ 5%

COc1cc2nn([C@H]3CC[C@H](CN4CCC5(CCN(c6cccc7c6n(C)c(=O)n7C6CCC(=O)NC6=O)CC5)C(F)(F)C4)CC3)cc2cc1NC(=O)c1cncc(F)c1 (stereo partly drawn) [I-127]
DC50 (IRAK4): < 0.01 µM | bioavailability [1]: ≤ 5%

COc1cc2nn([C@H]3CC[C@H](CN4CCC5(CN(c6ccc(C7CCC(=O)NC7=O)c(Cl)c6)C5)C(F)(F)C4)CC3)cc2cc1NC(=O)c1cncc(C#N)c1 (stereo partly drawn) [I-128]
DC50 (IRAK4): 0.01 to 0.1 µM | bioavailability [1]: ≤ 5%

Cn1c(=O)n(C2CCC(=O)NC2=O)c2cccc([C@@H]3CCN(C[C@H]4CC[C@H](n5cc6cc(NC(=O)c7cncc(C#N)c7)ccc6n5)CC4)C[C@H]3F)c21 (stereo partly drawn) [I-129]
DC50 (IRAK4): < 0.01 µM | bioavailability [1]: ≤ 5%

COc1cc2nn([C@H]3CC[C@H](CN4CCC5(CCN(c6cccc7c(C8CCC(=O)NC8=O)nn(C)c67)CC5)C(F)(F)C4)CC3)cc2cc1NC(=O)c1cncc(C#N)c1 (stereo partly drawn) [I-132]
DC50 (IRAK4): < 0.01 µM | bioavailability [1]: ≤ 5%

COc1cc2nn([C@H]3CC[C@H](CN4CC[C@@H](c5c(Cl)ccc6c5n(C)c(=O)n6C5CCC(=O)NC5=O)[C@H](F)C4)CC3)cc2cc1NC(=O)c1cncc(C#N)c1 (stereo partly drawn) [I-133]
DC50 (IRAK4): < 0.01 µM | bioavailability [1]: ≤ 5%

Cn1c(=O)n(C2CCC(=O)NC2=O)c2cccc([C@@H]3CCN(C[C@H]4CC[C@H](n5cc6cc(NC(=O)c7cc(C(F)(F)F)ccn7)ccc6n5)CC4)C[C@H]3F)c21 (stereo partly drawn) [I-134]
DC50 (IRAK4): > 0.2 µM | bioavailability [1]: ≥ 5%

Cn1c(=O)n(C2CCC(=O)NC2=O)c2cccc(N3CC[C@H](NC[C@H]4CC[C@H](n5cc(NC(=O)c6cnn7ccc(N8C[C@H]9C[C@@H]8CO9)nc67)c(C(F)F)n5)CC4)[C@@H](F)C3)c21 (stereo partly drawn) [I-135]
DC50 (IRAK4): < 0.01 µM | bioavailability [1]: ≥ 5%

CN(C[C@H]1CC[C@H](c2nc3cc(C(C)(C)O)c(NC(=O)c4cccc(C(F)(F)F)n4)cc3o2)CC1)[C@@H]1CCN(c2cccc3c2n(C)c(=O)n3C2CCC(=O)NC2=O)C[C@H]1F (stereo partly drawn) [I-137]
DC50 (IRAK4): < 0.01 µM | bioavailability [1]: ≥ 5%

Cn1c(=O)n(C2CCC(=O)NC2=O)c2cccc(N3CCC4(CCN(C[C@H]5CC[C@H](n6cc7cc(NC(=O)c8cccc(C(F)(F)F)c8)ncc7n6)CC5)CC4(F)F)CC3)c21 (stereo partly drawn) [I-141]
DC50 (IRAK4): 0.01 to 0.1 µM | bioavailability [1]: ≤ 5%

COc1cc2nn([C@H]3CC[C@H](CN4CC[C@@H](c5cccc6c5n(C)c(=O)n6C5CCC(=O)NC5=O)[C@H](F)C4)CC3)cc2cc1C(=O)Nc1cccc(C(F)(F)F)c1 (stereo partly drawn) [I-142]
DC50 (IRAK4): < 0.01 µM | bioavailability [1]: ≥ 5%

Cc1nc(C(=O)Nc2ccc3nn([C@H]4CC[C@H](CN5CC[C@@H](c6cccc7c6n(C)c(=O)n7C6CCC(=O)NC6=O)[C@H](F)C5)CC4)cc3c2)co1 (stereo partly drawn) [I-148]
DC50 (IRAK4): < 0.01 µM | bioavailability [1]: ≤ 5%

Cn1c(=O)n(C2CCC(=O)NC2=O)c2cccc([C@@H]3CCN(C[C@H]4CC[C@H](n5cc6cc(NC(=O)c7csc(C(F)(F)F)n7)ccc6n5)CC4)C[C@H]3F)c21 (stereo partly drawn) [I-149]
DC50 (IRAK4): < 0.01 µM | bioavailability [1]: ≤ 5%

Cn1c(=O)n(C2CCC(=O)NC2=O)c2cccc([C@@H]3CCN(C[C@H]4CC[C@H](n5cc6cc(NC(=O)c7nc(C(F)(F)F)cs7)ccc6n5)CC4)C[C@H]3F)c21 (stereo partly drawn) [I-154]
DC50 (IRAK4): < 0.01 µM | bioavailability [1]: ≤ 5%

Cn1cc(Cl)c(C(=O)Nc2ccc3nn([C@H]4CC[C@H](CN5CC[C@@H](c6cccc7c6n(C)c(=O)n7C6CCC(=O)NC6=O)[C@H](F)C5)CC4)cc3c2)n1 (stereo partly drawn) [I-155]
DC50 (IRAK4): > 0.2 µM | bioavailability [1]: ≤ 5%

Cn1c(=O)n(C2CCC(=O)NC2=O)c2cccc([C@@H]3CCN(C[C@H]4CC[C@H](n5cc6cc(NC(=O)c7cncc(C(F)(F)F)n7)ncc6n5)CC4)C[C@H]3F)c21 (stereo partly drawn) [I-156]
DC50 (IRAK4): < 0.01 µM | bioavailability [1]: ≤ 5%

Cn1c(=O)n(C2CCC(=O)NC2=O)c2cccc([C@@H]3CCN(C[C@H]4CC[C@H](c5nc6cc(C(C)(C)O)c(NC(=O)c7cncc(C(F)(F)F)c7)cc6s5)CC4)C[C@H]3F)c21 (stereo partly drawn) [I-163]
DC50 (IRAK4): < 0.01 µM | bioavailability [1]: ≥ 5%

Cn1c(=O)n(C2CCC(=O)NC2=O)c2cccc([C@@H]3CCN(C[C@H]4CC[C@H](c5nc6cc(C(C)(C)O)c(NC(=O)c7cccc(C(F)(F)F)n7)cc6o5)CC4)C[C@H]3F)c21 (stereo partly drawn) [I-167]
DC50 (IRAK4): < 0.01 µM | bioavailability [1]: ≥ 5%

Cn1c(=O)n(C2CCC(=O)NC2=O)c2cccc([C@@H]3CCN(C[C@H]4CC[C@H](c5nc6cc(C(C)(C)O)c(NC(=O)c7cccc(C(F)(F)F)c7)cc6s5)CC4)C[C@H]3F)c21 (stereo partly drawn) [I-169]
DC50 (IRAK4): < 0.01 µM | bioavailability [1]: ≤ 5%

Cn1c(=O)n(C2CCC(=O)NC2=O)c2cccc([C@@H]3CCN(C[C@H]4CC[C@H](c5nc6cc(C(C)(C)O)c(NC(=O)c7ccnc(C(F)(F)F)n7)cc6s5)CC4)C[C@H]3F)c21 (stereo partly drawn) [I-170]
DC50 (IRAK4): < 0.01 µM | bioavailability [1]: ≥ 5%

Cn1c(=O)n(C2CCC(=O)NC2=O)c2cccc([C@@H]3CCN(C[C@H]4CC[C@H](n5cc6cc(NC(=O)c7cncc(C(F)(F)F)n7)c(C(C)(C)O)cc6n5)CC4)C[C@H]3F)c21 (stereo partly drawn) [I-171]
DC50 (IRAK4): < 0.01 µM | bioavailability [1]: ≤ 5%

Cn1c(=O)n(C2CCC(=O)NC2=O)c2cccc([C@@H]3CCN(C[C@H]4CC[C@H](n5cc6cc(NC(=O)c7cncc(C(F)(F)F)n7)c(C#N)cc6n5)CC4)C[C@H]3F)c21 (stereo partly drawn) [I-172]
DC50 (IRAK4): < 0.01 µM | bioavailability [1]: ≤ 5%

Cn1c(=O)n(C2CCC(=O)NC2=O)c2cccc([C@@H]3CCN(C[C@H]4CC[C@H](c5nc6cc(C(C)(C)O)c(NC(=O)c7cncc(C(F)(F)F)n7)cc6s5)CC4)C[C@H]3F)c21 (stereo partly drawn) [I-173]
DC50 (IRAK4): < 0.01 µM | bioavailability [1]: ≤ 5%

Cn1c(=O)n(C2CCC(=O)NC2=O)c2cccc([C@@H]3CCN(C[C@H]4CC[C@H](n5cc6cc(NC(=O)c7cc(C(F)(F)F)cnn7)ccc6n5)CC4)C[C@H]3F)c21 (stereo partly drawn) [I-175]
DC50 (IRAK4): > 0.2 µM | bioavailability [1]: ≤ 5%

Cn1c(=O)n(C2CCC(=O)NC2=O)c2cccc(C#CCN3CCN(C[C@H]4CC[C@H](n5cc(NC(=O)c6cnn7ccc(N8C[C@H]9C[C@@H]8CO9)nc67)c(C(F)F)n5)CC4)C(=O)C3)c21 (stereo partly drawn) [I-185]
DC50 (IRAK4): < 0.01 µM | bioavailability [1]: ≤ 5%

Cn1c(=O)n(C2CCC(=O)NC2=O)c2cccc(C#CCN3CCN(C[C@H]4CC[C@H](n5cc(NC(=O)c6cnn7ccc(N8C[C@H]9C[C@@H]8CO9)nc67)c(C(F)F)n5)CC4)CC3=O)c21 (stereo partly drawn) [I-186]
DC50 (IRAK4): < 0.01 µM | bioavailability [1]: ≤ 5%

Cn1c(=O)n(C2CCC(=O)NC2=O)c2cccc([C@@H]3CCN(C[C@H]4CC[C@H](n5cc6cc(NC(=O)c7cncc(C#N)c7)c(C(C)(C)O)cc6n5)CC4)C[C@H]3F)c21 (stereo partly drawn) [I-188]
DC50 (IRAK4): < 0.01 µM | bioavailability [1]: ≤ 5%

COc1cc2nn([C@H]3CC[C@H](CN4CC[C@@H](c5cccc6c5n(C)c(=O)n6C5CCC(=O)NC5=O)[C@H](F)C4)CC3)cc2cc1NC(=O)c1cncc(C(F)(F)F)n1 (stereo partly drawn) [I-189]
DC50 (IRAK4): < 0.01 µM | bioavailability [1]: ≤ 5%

Source: patent publication US20250059164A1, “IRAK DEGRADERS AND USES THEREOF” (Kymera Therapeutics, Inc., priority 2023, published 2025)
